Earlier results in patent US20100087454A1, “MUCOSAL BIOADHESIVE SLOW RELEASE CARRIER FOR DELIVERING ACTIVE PRINCIPLES” (priority 2007, published 2010).

Settings: after systemic administration orally; relative to 50% inhibitory dose of herpes simplex-1 virus

Nc1nc2c(ncn2COCCO)c(=O)[nH]1 [acyclovir]
peak acyclovir concentrations in saliva: at the lower end of the 50% inhibitory dose of herpes simplex-1 virus
